Experiment [1] concerns the target T1, serotonin 1A receptor (Rattus norvegicus, UniProt P19327).
T1 construct: To the receptor fraction of the hippocampus were added a test compound and 0.5 nM of [^3H]; 8-hydroxy-dipropylaminotetralin; from tissue; host or cells: SD rat hippocampus, membrane (receptor) fraction
T1 sequence (P19327 1-422): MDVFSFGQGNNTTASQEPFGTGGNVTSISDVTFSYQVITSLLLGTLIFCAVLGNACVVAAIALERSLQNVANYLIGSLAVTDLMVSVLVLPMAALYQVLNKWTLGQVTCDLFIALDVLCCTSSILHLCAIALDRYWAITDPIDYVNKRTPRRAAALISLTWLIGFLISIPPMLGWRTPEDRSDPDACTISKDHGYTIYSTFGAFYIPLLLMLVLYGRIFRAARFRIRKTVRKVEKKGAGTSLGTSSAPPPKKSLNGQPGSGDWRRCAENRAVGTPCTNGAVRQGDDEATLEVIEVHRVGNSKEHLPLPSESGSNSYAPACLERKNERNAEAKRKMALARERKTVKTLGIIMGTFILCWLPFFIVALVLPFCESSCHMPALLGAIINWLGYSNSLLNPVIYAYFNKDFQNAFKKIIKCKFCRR
Briefly: Binding test on [3H] 8-hydroxy-dipropylaminotetralin (serotonin 1A receptor). Conditions: [3H] 8-OH-DPAT 0.5 nM, receptor fraction of rat hippocampus; read-out: 5HT1a.

Experiment [2] addresses serotonin 2 receptor (Rattus norvegicus, UniProt P14842). Briefly: Binding test on [3H] ketanserin (serotonin 2 receptor). Conditions: [3H] ketanserin 0.3 nM, receptor fraction of rat cerebral cortex; read-out: 5HT2.

serotonin 2 receptor, sequence (P14842 whole entry): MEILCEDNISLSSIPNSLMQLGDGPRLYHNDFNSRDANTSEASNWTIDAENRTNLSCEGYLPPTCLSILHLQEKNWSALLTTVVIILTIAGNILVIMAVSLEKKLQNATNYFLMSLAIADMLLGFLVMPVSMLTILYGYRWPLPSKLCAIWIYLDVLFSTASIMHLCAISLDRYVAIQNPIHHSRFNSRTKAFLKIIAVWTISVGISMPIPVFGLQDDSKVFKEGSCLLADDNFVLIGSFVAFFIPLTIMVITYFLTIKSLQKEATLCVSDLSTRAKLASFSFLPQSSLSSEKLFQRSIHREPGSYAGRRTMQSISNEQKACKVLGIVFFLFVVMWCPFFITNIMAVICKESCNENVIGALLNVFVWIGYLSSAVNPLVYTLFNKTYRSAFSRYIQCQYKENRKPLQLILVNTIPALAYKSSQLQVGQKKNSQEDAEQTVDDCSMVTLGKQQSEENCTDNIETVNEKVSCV

As to “1-[1-(4-fluorophenethyl)piperidin-4-yl]-6-(1,2,3-triazol-1-yl)methylindoline and 1-[1-(4-fluorophenethyl)piperidin-4-yl]-6-(1,2,3-triazol-2-yl)methylindoline [Example 212]”, the Ki in experiment [1] turned out to be 0.82 nM; in experiment [2], 0.36 nM.
In the case of `CC1CC(C2CCN(CCc3ccc(F)cc3)CC2)c2nccnc21` (mixture of isomers) [Example 266, 5-[1-(4-fluorophenethyl)piperidin-4-yl]-7-methyl-5,6-dihydro-5H-cyclopentapyrazine], the results for the Ki in experiment [1] and in experiment [2] were 31.6 nM and 22.6 nM, respectively.
Consider `C[C@@H]1CN(CCc2ccc(F)cc2)CC[C@@H]1N1CCc2ccccc21` (relative stereo) [Example 79, cis-1-[1-(4-fluorophenethyl)-3-methylpiperidin-4-yl]indoline], for which the Ki in experiment [1] was determined as 115 nM; in experiment [2] it was 26.5 nM.
Turning to `OC[C@@H]1CN(CCc2ccc(F)cc2)CC[C@@H]1N1CCc2ccccc21` (relative stereo) [Example 81, cis-1-[1-(4-fluorophenethyl)-3-hydroxymethylpiperidin-4-yl]indoline], the Ki in experiment [1] was found to be 44.3 nM.
Turning to `OC[C@H]1CN(CCc2ccc(F)cc2)CC[C@@H]1N1CCc2ccccc21` (relative stereo) [Example 82, trans-1-[1-(4-fluorophenethyl)-3-hydroxymethylpiperidin-4-yl]indoline], the Ki came out at 71.2 nM in experiment [1] and 5.3 nM in experiment [2].
Consider `CCN1CC[C@H](N2CCc3ccccc32)[C@H](COc2ccc(F)cc2)C1` (relative stereo) [Example 84, cis-1-[1-ethyl-3-(4-fluorophenoxymethyl)piperidin-4-yl]indoline], for which the results for the Ki in experiment [1] and in experiment [2] were over 200 nM and 134 nM, respectively.
Consider `CCN1CC[C@H](N2CCc3ccccc32)[C@@H](COCc2ccc(F)cc2)C1` (relative stereo) [Example 85, trans-1-[1-ethyl-3-(4-fluorobenzyloxymethyl)piperidin-4-yl]indoline], for which the Ki is 170 nM in experiment [1] and 56.2 nM in experiment [2].
Take `CCN1CCN([C@@H]2c3cc(OC)ccc3CC[C@H]2Oc2ccc(C(F)(F)F)cc2)CC1` (relative stereo) [Example 279, trans-1-(4-ethylpiperazin-1-yl)-7-methoxy-2-(4-trifluoromethylphenoxy)-1,2,3,4-tetrahydronaphthalene]: the Ki in experiment [1] turned out to be 0.22 nM; in experiment [2], 90.4 nM.
Consider `Fc1ccc(N2CCC(N3CCc4ccccc43)CC2)cc1` [Example 1, 1-[1-(4-fluorophenyl)piperidin-4-yl]indoline], for which the Ki in experiment [1] is 624 nM; in experiment [2] it was over 200 nM.
In the same order, the values of `c1ccc(CCN2CCC(N3CCc4ccccc43)CC2)cc1` [Example 3, 1-(1-phenethylpiperidin-4-yl)indoline] are 28.7 nM and 17.4 nM.
In the case of `Brc1ccc(CCN2CCC(N3CCc4ccccc43)CC2)cc1` [Example 4, 1-[1-(4-bromophenethyl)piperidin-4-yl]indoline], the Ki in experiment [1] was 6 nM; in experiment [2], 24.9 nM.
As for `Clc1cccc(CCN2CCC(N3CCc4ccccc43)CC2)c1` [Example 5, 1-[1-(3-chlorophenethyl)piperidin-4-yl]indoline], the values for the Ki in experiment [1] and in experiment [2] were 10.1 nM and 8.1 nM, respectively.
`Clc1ccc(CCN2CCC(N3CCc4ccccc43)CC2)cc1` [Example 6, 1-[1-(4-chlorophenethyl)piperidin-4-yl]indoline]: the Ki in experiment [1] was determined as 4.5 nM; in experiment [2], 17.4 nM.
In the case of `Fc1ccccc1CCN1CCC(N2CCc3ccccc32)CC1` [Example 7, 1-[1-(2-fluorophenethyl)piperidin-4-yl]indoline], the values for the Ki in experiment [1] and in experiment [2] were 34.3 nM and 12.8 nM, respectively.
Consider `Fc1cccc(CCN2CCC(N3CCc4ccccc43)CC2)c1` [Example 8, 1-[1-(3-fluorophenethyl)piperidin-4-yl]indoline], for which the figures for the Ki in experiment [1] and in experiment [2] were 13.5 nM and 26.9 nM, respectively.
Regarding `Fc1ccc(CCN2CCC(N3CCc4ccccc43)CC2)c(F)c1` [Example 10, 1-[1-(2,4-difluorophenethyl)piperidin-4-yl]indoline], the Ki stood at 8.1 nM in experiment [1] and 6 nM in experiment [2].
With `Fc1cc(F)cc(CCN2CCC(N3CCc4ccccc43)CC2)c1` [Example 12, 1-[1-(3,5-difluorophenethyl)piperidin-4-yl]indoline], the Ki in experiment [1] came out at 8.5 nM; in experiment [2] it was 16.3 nM.
Consider `Fc1ccc(CCCCN2CCC(N3CCc4ccccc43)CC2)cc1` [Example 15, 1-[1-(4-fluorophenylbutyl)piperidin-4-yl]indoline], for which the Ki in experiment [1] and in experiment [2] was 28.6 nM each time.
Take `Fc1ccc(CCN2CCC(CN3CCc4ccccc43)CC2)cc1` [Example 16, 1-[1-(4-fluorophenethyl)piperidin-4-yl]methylindoline]: the results for the Ki in experiment [1] and in experiment [2] were 109 nM and 13.9 nM, respectively.
For the molecule `Fc1ccc(CCN2CCC(CCN3CCc4ccccc43)CC2)cc1` [Example 17, 1-{2-[1-(4-fluorophenethyl)piperidin-4-yl]ethyl}indoline], the Ki in experiment [1] is 19 nM; in experiment [2], 16.4 nM.
In the case of `COc1ccc(CCN2CCC(N3CCc4ccccc43)CC2)cc1` [Example 18, 1-[1-(4-methoxyphenethyl)piperidin-4-yl]indoline], the figures for the Ki in experiment [1] and in experiment [2] were 0.13 nM and 0.12 nM, respectively.
On to `Oc1ccc(CCN2CCC(N3CCc4ccccc43)CC2)cc1` [Example 20, 1-[1-(4-hydroxyphenethyl)piperidin-4-yl]indoline], for which the figures for the Ki in experiment [1] and in experiment [2] were 15.2 nM and 0.22 nM, respectively.
As to `N#Cc1ccc(CCN2CCC(N3CCc4ccccc43)CC2)cc1` [Example 21, 1-[1-(4-cyanophenethyl)piperidin-4-yl]indoline], the Ki in experiment [1] was determined as 1.9 nM; in experiment [2], 42.7 nM.
For `OCc1ccc(CCN2CCC(N3CCc4ccccc43)CC2)cc1` [Example 23, 1-[1-(4-hydroxymethylphenethyl)piperidin-4-yl]indoline], the Ki in experiment [1] is 7.4 nM; in experiment [2] it was 14.6 nM.
Regarding `OCCc1ccc(CCN2CCC(N3CCc4ccccc43)CC2)cc1` [Example 24, 1-{1-[4-(2-hydroxyethyl)phenethyl]piperidin-4-yl}indoline], the Ki was determined as 26.5 nM in experiment [1] and 174 nM in experiment [2].
On to `CC(O)c1ccc(CCN2CCC(N3CCc4ccccc43)CC2)cc1` (stereo not shown) [Example 25, 1-{4-[(1-hydroxyethyl)phenethyl]piperidin-4-yl}indoline], for which the figures for the Ki in experiment [1] and in experiment [2] were 8.3 nM and 13.1 nM, respectively.
Turning to `FC(F)(F)c1ccc(CCN2CCC(N3CCc4ccccc43)CC2)cc1` [Example 27, 1-[1-(4-trifluoromethylphenethyl)piperidin-4-yl]indoline], the Ki in experiment [1] was over 200 nM; in experiment [2], 28.8 nM.
In the same order, the values of `CS(=O)(=O)c1ccc(CCN2CCC(N3CCc4ccccc43)CC2)cc1` [Example 28, 1-[1-(4-methanesulfonylphenethyl)piperidin-4-yl]indoline] are 46.9 nM and 8.1 nM.
In the same order, the values of `Nc1ccc(CCN2CCC(N3CCc4ccccc43)CC2)cc1` [Example 30, 1-[1-(4-aminophenethyl)piperidin-4-yl]indoline] are 21.9 nM and 15.7 nM.
For `CC(=O)Nc1ccc(CCN2CCC(N3CCc4ccccc43)CC2)cc1` [Example 32, 1-[1-(4-acetamidophenethyl)piperidin-4-yl]indoline], the Ki in experiment [1] and in experiment [2] was 30.2 nM throughout.
`CCNc1ccc(CCN2CCC(N3CCc4ccccc43)CC2)cc1` [Example 33, 1-[1-(4-ethylaminophenethyl)piperidin-4-yl]indoline]: the Ki in experiment [1] was 5.7 nM; in experiment [2] it was 24.3 nM.
For `NCc1ccc(CCN2CCC(N3CCc4ccccc43)CC2)cc1` [Example 35, 1-[1-(4-aminomethylphenethyl)piperidin-4-yl]indoline], the Ki is 16.6 nM in experiment [1] and 37.6 nM in experiment [2].
In the same order, the values of `O=C(CCl)NCc1ccc(CCN2CCC(N3CCc4ccccc43)CC2)cc1` [Example 37, 1-[1-(4-chloroacetamidomethylphenethyl)piperidin-4-yl]indoline] are 4.6 nM and 14.8 nM.
`CCC(=O)NCc1ccc(CCN2CCC(N3CCc4ccccc43)CC2)cc1` [Example 39]: the Ki in experiment [1] turned out to be 1.6 nM; in experiment [2] it was 8.9 nM.
In the same order, the values of `NC(=O)c1ccc(CCN2CCC(N3CCc4ccccc43)CC2)cc1` [Example 40, 1-[1-(4-carbamoylphenethyl)piperidin-4-yl]indoline] are 43.7 nM and over 200 nM.
Take `CC(C)NC(=O)Cc1ccc(CCN2CCC(N3CCc4ccccc43)CC2)cc1` [Example 41, 1-[1-(4-N-isopropylcarbamoylmethylphenethyl)piperidin-4-yl]indoline]: the values for the Ki in experiment [1] and in experiment [2] were 19.8 nM and 5.03 nM, respectively.
As for `COc1ccc2c(c1)CCN2C1CCN(CCc2ccc(F)cc2)CC1` [Example 99, 1-[1-(4-fluorophenethyl)piperidin-4-yl]-5-methoxyindoline], the Ki in experiment [2] turned out to be 8.7 nM.
In the case of `O=C(Cc1ccc2c(c1)N(C1CCN(CCc3ccc(F)cc3)CC1)CC2)NC1CC1` [Example 154, 1-[1-(4-fluorophenethyl)piperidin-4-yl]-6-(cyclopropylcarbamoylmethyl)indoline], the Ki in experiment [1] was found to be 6.52 nM.

The values are drawn from patent US6579881B2 (Eisai Co., Ltd., priority 1997, dated 2003).
